“And” between values parts separate entries of the source, which are not always exact repeats. Equal entries are not always repeated. Inconclusive results and toxic doses are left out. Rule for the calls: active = survival T/C of 150% or more; inactive = T/C below 125% in these data.
Tested on: CD2F1 mice, L1210 leukemia ip, survival T/C
Test: NCI In Vivo Anticancer Drug Screen. Data for tumor model L1210 Leukemia (intraperitoneal) in CD2F1 (CDF1) mice
Conditions: higher = longer survival
Procedure: The antitumor activity of compounds was measured in mice bearing transplantable tumors. Survival or tumor size were measured and the results are expressed as the measurement made in the treated group (T) divided by the measurement made in the vehicle treated control group (C). The tumor model used in this assay is L1210 Leukemia (intraperitoneal) in CD2F1 (CDF1) mice

[1] = endpoint: mean survival time, dose: 100.0 mg/kg/injection, schedule: Q01DX009 (ip), vehicle: saline with Tween-80
[2] = endpoint: mean survival time, dose: 200.0 mg/kg/injection, schedule: Q01DX009 (ip), vehicle: saline with Tween-80
[3] = endpoint: mean survival time, dose: 200.0 mg/kg/injection, schedule: Q04DX002 (ip), vehicle: saline with Tween-80
[4] = endpoint: mean survival time, dose: 400.0 mg/kg/injection, schedule: Q04DX002 (ip), vehicle: saline with Tween-80
[5] = endpoint: mean survival time, dose: 25.0 mg/kg/injection, schedule: Q01DX009 (ip), vehicle: saline with Tween-80
[6] = endpoint: mean survival time, dose: 50.0 mg/kg/injection, schedule: Q01DX009 (ip), vehicle: saline with Tween-80

Measured: T/C

CC(C)CCCC(C)C1CCC2C3=CCC4CC(O)CCC4(C)C3CCC21C (centres undefined)
inactive: endpoint: mean survival time, dose: 100.0 mg/kg/injection, schedule: Q04DX003 (ip), vehicle: saline with Tween-80 100 % of control | endpoint: mean survival time, dose: 200.0 mg/kg/injection, schedule: Q04DX003 (ip), vehicle: saline with Tween-80 91 % of control | endpoint: mean survival time, dose: 400.0 mg/kg/injection, schedule: Q04DX003 (ip), vehicle: saline with Tween-80 94 % of control

CCCCOC(=O)c1ccccc1
inactive: [1] 102 % of control | [2] 104 % of control

CC(=O)c1c(C)c2c(C)cc3oc(=O)c(C(C)=O)c(C)c3c2oc1=O
inactive: [3] 92 % of control | [4] 87 % of control

COc1cc(OC)c(NC(=O)NCc2ccco2)cc1Cl
inactive: endpoint: mean survival time, dose: 12.5 mg/kg/injection, schedule: Q01DX009 (ip), vehicle: saline with Tween-80 103 % of control | [5] 95 % of control | [6] 88 % of control and 98 % of control | [2] 92 % of control

CC(=O)NC1=CC(=O)C(C)=CC1=O
inactive: endpoint: mean survival time, dose: 5.0 mg/kg/injection, schedule: Q01DX001 (ip), vehicle: saline 98 % of control | endpoint: mean survival time, dose: 10.0 mg/kg/injection, schedule: Q01DX001 (ip), vehicle: saline 98 % of control

CN(C)CCCC#N
inactive: [6] 96 % of control | [1] 102 % of control

C=C(C)C12OC3(CCCCCCCCC)OC1C1C4OC4(COC(=O)CCCCCCCCCCCCCCC)C(O)C4(O)C(=O)C(C)=CC4C1(O3)C(C)C2OC(=O)c1ccccc1 (centres undefined)
inactive: endpoint: mean survival time, dose: 5.0 micrograms/kg/injection, schedule: Q01DX009 (ip), vehicle: saline + alcohol 97 % of control | endpoint: mean survival time, dose: 10.0 micrograms/kg/injection, schedule: Q01DX009 (ip), vehicle: saline + alcohol 117 % of control | endpoint: mean survival time, dose: 20.0 micrograms/kg/injection, schedule: Q01DX009 (ip), vehicle: saline + alcohol 105 % of control | endpoint: mean survival time, dose: 40.0 micrograms/kg/injection, schedule: Q01DX009 (ip), vehicle: saline + alcohol 112 % of control

CC(=O)OC1(c2ccccc2)OC(=O)c2ccccc21 (centres undefined)
inactive: endpoint: mean survival time, dose: 100.0 mg/kg/injection, schedule: Q04DX002 (ip), vehicle: saline with Tween-80 97 % of control | [3] 91 % of control | [4] 108 % of control

CCOC(=O)Nc1nccs1
inactive: [5] 98 % of control | [6] 100 % of control | [1] 98 % of control | endpoint: mean survival time, dose: 100.0 mg/kg/injection, schedule: Q04DX003 (ip), vehicle: Klucel (hydroxypropylcellulose) (HPC) 101 % of control | endpoint: mean survival time, dose: 200.0 mg/kg/injection, schedule: Q04DX003 (ip), vehicle: Klucel (hydroxypropylcellulose) (HPC) 97 % of control

N#Cc1c(Cl)cc(C2(O)C3C=CC2CC3)cc1Cl (centres undefined)
inactive: endpoint: median survival time, dose: 25.0 mg/kg/injection, schedule: Q04DX002 (ip), vehicle: saline with Tween-80 112 % of control | endpoint: median survival time, dose: 50.0 mg/kg/injection, schedule: Q04DX002 (ip), vehicle: saline with Tween-80 100 % of control | endpoint: median survival time, dose: 100.0 mg/kg/injection, schedule: Q04DX002 (ip), vehicle: saline with Tween-80 100 % of control | endpoint: median survival time, dose: 200.0 mg/kg/injection, schedule: Q04DX002 (ip), vehicle: saline with Tween-80 112 % of control

CCCCCCCCCC/C(C)=N/Nc1ccc([N+](=O)[O-])cc1[N+](=O)[O-]
inactive: endpoint: mean survival time, dose: 100.0 mg/kg/injection, schedule: Q01DX001 (ip), vehicle: saline with Tween-80 94 % of control | endpoint: mean survival time, dose: 200.0 mg/kg/injection, schedule: Q01DX001 (ip), vehicle: saline with Tween-80 89 % of control | endpoint: mean survival time, dose: 400.0 mg/kg/injection, schedule: Q01DX001 (ip), vehicle: saline with Tween-80 93 % of control
